Experimental data reported in patent US11357229B2, “Composition, uses and preparation process thereof, as well as method to ensure high corn crop yield” (priority 2011, dated 2022).

Legend:
Format in all cases: in vivo, Zea mays
corn [1] = experiment: Ethephon applied to corn at stage V8, Nova Mutum; methomyl and pyraclostrobin+epoxyconazole added in all treatments; conditions: V8, 5 g ha^−1 a.i.
Experimental: Example 1—Effect of Growth Regulator Ethephon Applied to Corn at the Stage of Development V8
(§1) In the moment of the application, the insecticide methomyl (215 g ha^−1 a.i.) and the fungicide pyraclostrobin+epoxyconazole (99.75+37.5 g ha^−1 a.i.) were added in all treatments, including the control.

corn [2] = experiment: Ethephon applied to corn at stage V6, Nova Mutum; chlorantraniliprole and cyproconazole+azoxystrobin added in all treatments; conditions: V6, 5 g ha^−1 a.i.
Experimental: Example 2—Effect of Growth Regulator Ethephon Applied to Corn at the Stage of Development V6
(§2) In the moment of the application, the insecticide chlorantraniliprole (25 g ha^−1 a.i.) and the fungicide cyproconazole+azoxystrobin (24+60 g ha^−1 a.i.) were added in all treatments, including the control.

corn [3] = experiment: BF 428-5 applied to corn at stage V8, Nova Mutum; methomyl and pyraclostrobin+epoxyconazole added in all treatments; conditions: for Increased Yield: 100,000 plants/ha vs control at normal density
Experimental: Example 5—Effect of Growth Regulator BF 428-5 Applied to Corn at the Stage of Development V8
as §1

corn [4] = experiment: BF 428-5 applied to corn at stage V6, Nova Mutum; chlorantraniliprole and cyproconazole+azoxystrobin added in all treatments; conditions: for Height (shoot length): 30 DAA; for Increased Yield: 100,000 plants/ha vs control at normal density
Experimental: Example 6—Effect of Growth Regulator BF 428-5 Applied to Corn at the Stage of Development V6
as §2

CSC(=O)c1cccc2nnsc12 [Acybenzolar-S-methyl, acybenzolar-S-methyl]
Ear Diameter (corn [1]): 53.7 mm | Ear Length (corn [1]): 26.5 cm | Yield (corn [1]): 4815.6 kg/ha | Height (shoot length) (corn [1]; 30 DAA): 206.8 cm | Population of corn plants 60,000 plants/ha, kg/corn plant (corn [1]; 60,000 plants/ha): 0.080 kg/corn plant | Ear Diameter (corn [2]): 34.7 mm | Ear Length (corn [2]): 21.9 cm | Yield (corn [2]): 2662.2 kg/ha | Height (shoot length) (corn [2]; 30 DAA): 195.2 cm | Population of corn plants 60,000 plants/ha, kg/corn plant (corn [2]; 60,000 plants/ha): 0.044 kg/corn plant

C[N+](C)(C)CCCl [BF 428-05, chlormequat chloride]
effects on the corn plant (corn [3]; V8): reduction in shoot length, increased formation of adventitious roots, strengthening of the stem, strengthening of the root system, increased ventilation in the culture, proper development of male and female inflorescences | effect on length and diameter of ears of corn (corn [3]; V8 (Table 9)): does not reduce | yield reduction (corn [3]; V8 (Table 9)): no yield reduction | shoot length (corn [3]; V8, 30 DAA, all treatments with BF 428-5 (Table 9)): less than or equal to 218.8 cm | Ear Diameter (corn [3]; V8, 42.5 g ha^−1 a.i.): 54.3 mm | Ear Length (corn [3]; V8, 42.5 g ha^−1 a.i.): 27.8 cm | Yield (corn [3]; V8, 42.5 g ha^−1 a.i.): 5762.2 kg/ha | Height (shoot length) (corn [3]; V8, 42.5 g ha^−1 a.i., 30 DAA): 214.6 cm | Population of corn plants 60,000 plants/ha, kg/corn plant (corn [3]; V8, 42.5 g ha^−1 a.i.): 0.096 kg/corn plant | Population of corn plants 100,000 plants/ha, kg/corn plant (corn [3]; V8, 42.5 g ha^−1 a.i.): 0.096 kg/corn plant | Yield estimates 100,000 plants/ha (corn [3]; V8, 42.5 g ha^−1 a.i.): 9603.7 kg/ha | Increased Yield (corn [3]; V8, 42.5 g ha^−1 a.i.): 89.2% | Ear Diameter (corn [3]; V8, 85 g ha^−1 a.i.): 53.9 mm | Ear Length (corn [3]; V8, 85 g ha^−1 a.i.): 27.3 cm | Yield (corn [3]; V8, 85 g ha^−1 a.i.): 4355.6 kg/ha | Height (shoot length) (corn [3]; V8, 85 g ha^−1 a.i., 30 DAA): 218.8 cm | Population of corn plants 60,000 plants/ha, kg/corn plant (corn [3]; V8, 85 g ha^−1 a.i.): 0.073 kg/corn plant | Population of corn plants 100,000 plants/ha, kg/corn plant (corn [3]; V8, 85 g ha^−1 a.i.): 0.073 kg/corn plant | Yield estimates 100,000 plants/ha (corn [3]; V8, 85 g ha^−1 a.i.): 7259.3 kg/ha | Increased Yield (corn [3]; V8, 85 g ha^−1 a.i.): 43.0% | Ear Diameter (corn [3]; V8, 127.5 g ha^−1 a.i.): 54.2 mm | Ear Length (corn [3]; V8, 127.5 g ha^−1 a.i.): 27.2 cm | Yield (corn [3]; V8, 127.5 g ha^−1 a.i.): 4968.9 kg/ha | Height (shoot length) (corn [3]; V8, 127.5 g ha^−1 a.i., 30 DAA): 217.8 cm | Population of corn plants 60,000 plants/ha, kg/corn plant (corn [3]; V8, 127.5 g ha^−1 a.i.): 0.083 kg/corn plant | Population of corn plants 100,000 plants/ha, kg/corn plant (corn [3]; V8, 127.5 g ha^−1 a.i.): 0.083 kg/corn plant | Yield estimates 100,000 plants/ha (corn [3]; V8, 127.5 g ha^−1 a.i.): 8281.5 kg/ha | Increased Yield (corn [3]; V8, 127.5 g ha^−1 a.i.): 63.2% | yield increases (corn [3]; V8, estimation at 100,000 plants per hectare vs control at normal density of sowing (Table 10)): more than 43% | effects on the corn plant (corn [4]; V6): reduction in shoot length, increased formation of adventitious roots, strengthening of the stem, strengthening of the root system, increased ventilation in the culture, proper development of male and female inflorescences | effect on length and diameter of ears of corn (corn [4]; V6 (Table 11)): does not reduce | yield reduction (corn [4]; V6 (Table 11)): no yield reduction | Ear Diameter (corn [4]; V6, 42.5 g ha^−1 a.i.): 38.4 mm | Ear Length (corn [4]; V6, 42.5 g ha^−1 a.i.): 23.9 cm | Yield (corn [4]; V6, 42.5 g ha^−1 a.i.): 3126.7 kg/ha | Height (shoot length) (corn [4]; V6, 42.5 g ha^−1 a.i.): 206.0 cm | Population of corn plants 60,000 plants/ha, kg/corn plant (corn [4]; V6, 42.5 g ha^−1 a.i.): 0.052 kg/corn plant | Population of corn plants 100,000 plants/ha, kg/corn plant (corn [4]; V6, 42.5 g ha^−1 a.i.): 0.052 kg/corn plant | Yield estimates 100,000 plants/ha (corn [4]; V6, 42.5 g ha^−1 a.i.): 5211.2 kg/ha | Increased Yield (corn [4]; V6, 42.5 g ha^−1 a.i.): 80.5% | Ear Diameter (corn [4]; V6, 85 g ha^−1 a.i.): 37.0 mm | Ear Length (corn [4]; V6, 85 g ha^−1 a.i.): 22.9 cm | Yield (corn [4]; V6, 85 g ha^−1 a.i.): 1902.2 kg/ha | Height (shoot length) (corn [4]; V6, 85 g ha^−1 a.i.): 205.8 cm | Population of corn plants 60,000 plants/ha, kg/corn plant (corn [4]; V6, 85 g ha^−1 a.i.): 0.032 kg/corn plant | Population of corn plants 100,000 plants/ha, kg/corn plant (corn [4]; V6, 85 g ha^−1 a.i.): 0.032 kg/corn plant | Yield estimates 100,000 plants/ha (corn [4]; V6, 85 g ha^−1 a.i.): 3170.3 kg/ha | Increased Yield (corn [4]; V6, 85 g ha^−1 a.i.): 9.8% | Ear Diameter (corn [4]; V6, 127.5 g ha^−1 a.i.): 37.9 mm | Ear Length (corn [4]; V6, 127.5 g ha^−1 a.i.): 21.5 cm | Yield (corn [4]; V6, 127.5 g ha^−1 a.i.): 2500.0 kg/ha | Height (shoot length) (corn [4]; V6, 127.5 g ha^−1 a.i.): 200.3 cm | Population of corn plants 60,000 plants/ha, kg/corn plant (corn [4]; V6, 127.5 g ha^−1 a.i.): 0.042 kg/corn plant | Population of corn plants 100,000 plants/ha, kg/corn plant (corn [4]; V6, 127.5 g ha^−1 a.i.): 0.042 kg/corn plant | Yield estimates 100,000 plants/ha (corn [4]; V6, 127.5 g ha^−1 a.i.): 4166.7 kg/ha | Increased Yield (corn [4]; V6, 127.5 g ha^−1 a.i.): 44.3% | yield increases (corn [4]; V6, estimation at 100,000 plants per hectare vs control at normal density of sowing (Table 12)): more than 9.8%
